According to patent publication US6417362B1, “Nitrogenous heterocyclic compounds and hyperlipemia remedy containing the same” (Meiji Seika Kaisha, Ltd., priority 1997, dated 2002):

How the values were obtained:
[1] = tested on: biosynthesis of triglycerides in cell strain HepG2 derived from human hepatoma; assay: Inhibitory activity against biosynthesis of triglycerides (14C-acetic acid incorporation); type: cell-based; conditions: HepG2 cells, test compound at final concentration of 3 μM
Procedure: Inhibitory activity against biosynthesis of triglycerides The inhibitory activity of the compounds according to the present invention against the biosynthesis of triglycerides were studied using cell strain HepG2 derived from human hepatoma.
The test was carried out by the method of Nagata et al. (Biochem. Pharmacol., 40, 843 (1990)) and the method of Furukawa et al. (J. Biol. Chem., 267, 22630 (1992)) which had been partly modified. Specifically, HepG2 cells were cultivated in a Dulbecco's modified Eagle's medium (DMEM), containing 10% fetal calf serum (FCS), 100 units/ml penicillin, and 100 μg/ml streptomycin, placed in 96-well plates. Thereafter, the medium was replaced with DMEM containing 1% bovine serum albumin, and the test compound was simultaneously added to a final concentration of 3 μM or was not added, followed by cultivation. Three hr after the replacement of the medium, ^14C-acetic acid was added to a final concentration of 1 mM, followed by cultivation for additional 4 hr. The cells were washed with a phosphate buffer (pH 7.5) containing 150 mM sodium chloride. Thereafter, lipid within the cells was extracted with n-butanol. After the extraction, the extract was evaporated to dryness under a nitrogen gas stream. The residue was dissolved in a small amount of chloroform. The solution was developed in thin-layer chromatography (developing solvent petroleum ether:diethyl ether:acetic acid=90:15:3), and a ^14C-triglyceride fraction was isolated. The amount of […] produced was then quantitatively determined with a liquid scintillation counter (Beckman, LS-6500).
The inhibition (%) of the biosynthesis of triglycerides was calculated by the following equation:
Inhibition (%) of biosynthesis of triglycerides={1-(amount of ^14C-triglycerides produced in the presence of drug)/(amount of ^14C-triglycerides produced in the absence of drug)}×100.

[2] = tested on: secretion of apolipoprotein B in cell strain HepG2 derived from hepatoma; assay: Inhibitory activity against secretion of apolipoprotein B (sandwich ELISA); type: cell-based; conditions: Homo sapiens; HepG2 cells, test compound at final concentration of 3 μM
Procedure: Inhibitory activity against secretion of apolipoprotein B
The inhibitory activity of the compounds according to the present invention against the secretion of apolipoprotein B was studied using cell strain HepG2 derived from hepatoma.
The test was carried out by the method of Nagata et al. (Biochem. Pharmacol., 40, 843 (1990)) and the method of Furukawa et al. (J. Biol. Chem., 267, 22630 (1992)) which had been partly modified. Specifically, HepG2 cells were cultivated in a Dulbecco's modified Eagle's medium (DMEM), containing 10% fetal calf serum (FCS), 100 units/ml penicillin, and 100 μg/ml streptomycin, placed in 96-well plates. Thereafter, the medium was replaced with DMEM containing 1% bovine serum albumin, and the test compound was simultaneously added to a final concentration of 3 μM or not added, followed by cultivation. Three hr after the replacement of the medium, acetic acid was added to a final concentration of 1 mM, followed by cultivation for additional 4 hr. The amount of apolipoprotein B secreted in the supernatant of the culture thus obtained was quantitatively determined by the sandwich ELISA method. In this case, goat anti-human apolipoprotein B polyclonal antibody (CHEMICON) was used as a primary antibody, and mouse anti-human apolipoprotein B monoclonal antibody peroxidase conjugate (BIOSYS) was used as a secondary antibody.
The inhibition (%) against the secretion of apolipoprotein B was calculated by the following equation:
Inhibition (%) of secretion of apolipoprotein B={1-(amount of apolipoprotein B secreted in the presence of drug)/(amount of apolipoprotein B secreted in the absence of drug)}×100

ddY mice (male) = assay: Acute toxicity test in mice; type: in vivo; conditions: orally administered 200 mg/kg, observed for 8 days
Procedure: (§1) An acute toxicity test was carried out using mice and rats by a conventional method.

wistar rats (male) = assay: Acute toxicity test in rats; type: in vivo; conditions: orally administered 200 mg/kg, observed for 8 days
Procedure: as §1

Compound | inhibition at 3 µM [1] [%] | inhibition at 3 µM [2] [%] | change in general states, such as reduction in body weight (ddY mice (male)) | survival in acute toxicity test (ddY mice (male)) | change in general states, such as reduction in body weight (wistar rats (male)) | survival in acute toxicity test (wistar rats (male))
CC(C)=CCC/C(C)=C/CC/C(C)=C/CN1CCN(c2ccc3c(c2)C(=O)N(C2CCCCC2)C3)CC1 [Example 5, 2-Cyclohexyl-2,3-dihydro-6-[4-(trans,trans-farnesyl)piperazin-1-yl]-1H-isoindol-1-one] | 90 | 56 | – | – | – | –
O=C1c2cc(N3CCN(CCC(c4ccccc4)c4ccccc4)CC3)ccc2CN1C1CCCCC1 [Example 8, 2-Cyclohexyl-2,3-dihydro-6-[4-(3,3-diphenyl-1-propyl)piperazin-1-yl]-1H-isoindol-1-one] | 79 | 70 | any change in general states, such as a reduction in body weight, did not occur | survived | any change in general states, such as a reduction in body weight, did not occur | survived
O=C1c2cc(N3CCN(CCC(c4ccccc4)c4ccccc4)CC3)ccc2CCN1C1CCCCC1 [Example 68, 2-Cyclohexyl-7-[4-(3,3-diphenyl-1-propyl)-piperazin-1-yl]-3,4-dihydro-2H-isoquinolin-1-one] | 64 | 61 | – | – | – | –
CC(C)(C)OC(=O)N1CCN(c2ccc3c(c2)C(=O)N(C2CCCCC2)C3)CC1 [Example 30, 6-[4-(t-Butoxycarbonyl)piperazin-1-yl]-2-cyclo-hexyl-2,3-dihydro-1H-isoindol-1-one] | 89 | 68 | – | – | – | –
